Results on 4 compounds are retold here after article PMC12394750, “2H-1,4-Benzoxazin-3(4H)-one linked 1,2,3-triazole derivatives and their study on inducing DNA damage in tumor cells” (Frontiers in Pharmacology, 2025).

In data set [1] the test system is Huh-7 cells. In words: RT-PCR gene expression. The data set is classed as cell-based, human. The note with it: Huh-7, 72 h; for Caspase-7 gene expression: c5, c14 30 μM; for ATG7 gene expression / H2AX gene expression / Keap1 gene expression / TNF-α gene expression / p21 gene expression / p53 gene expression: c5, c14, c16 30 μM; for Bax gene expression / Bcl2 gene expression: c14, c16 30 μM. As for the experimental part: To investigate the molecular mechanisms underlying the anti-tumor activity of 2H-1,4-benzoxazin-3(4H)-one linked 1,2,3-triazole derivatives, we examined the expression of key genes involved in cell growth and death, including those related to DNA damage, oxidative stress, apoptosis, and autophagy. Huh-7 cells were treated with compounds c5 (30 μM), c14 (30 μM), c16 (30 μM), and c18 (20 μM) for 72 h, followed by RT-PCR analysis.
FIGURE 5 Compounds c5, c14, c16, and c18 increased the gene expression. (A–D) Huh-7 cells were treated with different concentrations of compounds c5, c14, c16, and c18 (20 or 30 μM) for 72 h. Gene expressions were detected by RT-PCR. Data were presented as means ± SEM; *P < 0.05.
Huh-7 cells were seeded in a 12-well plate and treated with compounds for 72 h. Total RNA was extracted using TRIzol reagent (Ambion, United States), and RT-PCR was performed using PowerUp™ SYBR™ Green Master Mix (ABI, United States). Gene expression was normalized to GAPDH. Values were expressed as mean ± SEM. Statistical significance was assessed using a two-tailed Student’s t-test. P < 0.05 was considered statistically significant.

Data set [2] has as its system Huh-7 cells. In words: Autophagy staining assay (MDC probe). The class given is cell-based, human. To be noted: Huh-7, 10, 20 or 30 μM, 24 h; especially at doses lower than 30 μM. As for the experimental part: To further evaluate the role of 2H-1,4-benzoxazin-3(4H)-one linked 1,2,3-triazole derivatives in regulating autophagy, Huh-7 cells were treated with different doses (10 μM, 20 μM, or 30 μM) of compounds c5, c14, c16, and c18 for 24 h, and the autophagosome was detected by the MDC (monodansylcadaverine) probe. MDC could specifically label autophagosomes, which will show as green, and we can directly observe them using a fluorescence microscope.
FIGURE 8 Compounds c5, c14, c16, and c18 affected autophagy. Autophagy staining in Huh-7 cells treated with compounds c5, c14, c16, and c18 (10 μM, 20 μM, or 30 μM).
Huh-7 cells were seeded in a 96-well plate at a density of 2 × 10^3 cells/well. Cells were treated with compounds at the doses of 0 μM, 5 μM, 10 μM, 20 μM, or 30 μM. After 24 h of treatment, the medium was removed, and cells were stained with monodansylcadaverine for 1 h in the dark at 37 °C. The cells were photographed with confocal microscopy.

Data set [3] in a line: CCK-8 cell viability, L02. The data set is classed as cell-based. To be noted: human, L02 normal liver cells.
Another data set concerns KM mice. The data set is described as follows: Acute toxicity test, HE staining of organs. The class given is in vivo. To be noted: male KM mice, 500 mg/kg via gavage, 14 consecutive days. As for the experimental part:
We assessed the safety of compound c18 using an acute toxicity test in KM mice. Male mice were divided into a control group and a c18-treated group, with the latter receiving 500 mg/kg of compound c18 via gavage for 14 consecutive days, while the control group received an equivalent volume of solvent. To evaluate the safety of compound c18, major organs—including the heart, liver, spleen, lungs, and kidneys—were collected from treated KM mice and subjected to hematoxylin and eosin (HE) staining.

Regarding `O=C1COc2cc(NC(=O)c3cccc(-c4cn(Cc5ccc(Br)cc5)nn4)c3)ccc2N1` [compound c5, 3-(1-(4-bromobenzyl)-1H-1,2,3-triazol-4-yl)-N-(3-oxo-3,4-dihydro-2H-benzo[b][1,4]oxazin-7-yl)benzamide], in the data set on Huh-7 cells [1] (c5 30 μM), the Atg5 gene expression entry is listed as “remained unchanged”, the Gpx4 gene expression result is recorded as “either downregulated or unchanged” and the Nrf2 gene expression entry was “either downregulated or unchanged”. Moreover, the Caspase-7 gene expression result with Huh-7 cells [1] is listed as “notably increased”. Also, in the data set with Huh-7 cells [1] (c18 20 μM), the ATG7 gene expression result is “downregulated”, the H2AX gene expression result was “no significant changes”, the Keap1 gene expression result is recorded as “significantly upregulated” and the TNF-α gene expression result was “significantly upregulated”. Further, in the data set on Huh-7 cells [1] (c18 20 μM), the p21 gene expression entry is “no significant changes” and the p53 gene expression result was “no significant changes”. In addition, the “Autophagosomes (MDC probe)” value with Huh-7 cells [2] is listed as “increased”. Further, the viability at 72 h, 50 µM in data set [3] is 101 ± 3.35%.

Take `O=C1COc2cc(NC(=O)c3cccc(-c4cn(Cc5ccc(C(F)(F)F)cc5)nn4)c3)ccc2N1` [compound c16, N-(3-oxo-3,4-dihydro-2H-benzo[b][1,4]oxazin-7-yl)-3-(1-(4-(trifluoromethyl)benzyl)-1H-1,2,3-triazol-4-yl)benzamide]: in the data set on Huh-7 cells [1] (c18 20 μM), the ATG7 gene expression result is listed as “downregulated”, the H2AX gene expression entry is recorded as “markedly upregulated”, the TNF-α gene expression result was “markedly upregulated” and the p53 gene expression result is given as “markedly upregulated”. Moreover, in the data set with Huh-7 cells [1], the Bax gene expression result is “elevated” and the Bcl2 gene expression entry was “elevated”. Besides, the “Autophagosomes (MDC probe)” value in the data set on Huh-7 cells [2] is on record as “increased”. Further, in data set [3], the viability at 72 h, 50 µM stood at 117 ± 1.41%.

Turning to `O=C1COc2cc(NC(=O)c3cccc(-c4cn(Cc5cccc(F)c5)nn4)c3)ccc2N1` [compound c14, 3-(1-(3-fluorobenzyl)-1H-1,2,3-triazol-4-yl)-N-(3-oxo-3,4-dihydro-2H-benzo[b][1,4]oxazin-7-yl)benzamide], in the data set on Huh-7 cells [1], the Caspase-7 gene expression result was “no significant changes”, the Bax gene expression result is given as “no significant changes” and the Bcl2 gene expression result was “significantly increased”. In addition, in the data set on Huh-7 cells [1] (c18 20 μM), the H2AX gene expression entry is reported as “significantly upregulated”, the Keap1 gene expression entry is given as “significantly increased”, the p21 gene expression entry was “unchanged or downregulated” and the p53 gene expression entry is reported as “unchanged or downregulated”. Also, in the data set with Huh-7 cells [1] (c14 30 μM), the autophagy-related gene expression result is recorded as “No differences” and the caspase-6 gene expression result is on record as “no significant changes”. In the data set with Huh-7 cells [2], the “Autophagosomes (MDC probe)” value is reported as “increased”. Also, in data set [3], the viability at 72 h, 50 µM is 116 ± 1.18%.

`O=C1COc2cc(NC(=O)c3cccc(-c4cn(Cc5ccc(Cl)cc5)nn4)c3)ccc2N1` [compound c18, 3-(1-(4-chlorobenzyl)-1H-1,2,3-triazol-4-yl)-N-(3-oxo-3,4-dihydro-2H-benzo[b][1,4]oxazin-7-yl)benzamide]: in the data set with Huh-7 cells [1] (c18 20 μM), the ATG7 gene expression result was “downregulated”, the Keap1 gene expression entry is reported as “dramatically upregulated”, the p21 gene expression result is reported as “dramatically upregulated” and the apoptosis-related gene expression entry is given as “no changes”. The “Histopathological changes of heart, liver, spleen, lungs, kidneys (HE staining)” value with KM mice is recorded as “no significant histopathological changes”. Besides, the “Autophagosomes (MDC probe)” value in the data set on Huh-7 cells [2] is given as “increased”. Besides, in data set [3], the viability at 72 h, 50 µM worked out at 117 ± 1.27%.
